This is an account of results in ChEMBL document CHEMBL6092187, “Enantiomerically Pure Indazole Bioisosteres of Ifenprodil and Ro 25-6981 as Negative Allosteric Modulators of NMDA Receptors with the GluN2B Subunit” (J Med Chem, 2024).

The nature of series [1]: in vitro. As to conditions: mouse, liver microsomes.
Description: Metabolic stability in mouse liver microsomes assessed as parent compound remaining measured after 90 mins in presence of NADPH by HPLC analysis
Series [2] deals with Glutamate receptor ionotropic, NMDA 2B (Homo sapiens, UniProt Q13224). Put plainly: Displacement of [3H]ifenprodil from human GluN2B receptor extracted from mouse LTK- cell membrane assessed as inhibition constant by competitive binding assay. Type of series: cell membranes.
Series [3] is described as follows: physchem. The note with it: n-octanol/3-morpholinopropanesulfonic acid (MOPS) buffer, pH 7.4.
The conditions of series [4]: mouse, microsomes, 1.5 h.
Description: Drug metabolism in mouse liver microsomes assessed as glucuronic acid conjugates formation measured after 90 mins in presence of UDP-GA by LC-MS analysis
A short description of series [5]: Metabolic stability in human liver microsomes assessed as half-life at 10 uM measured after 120 mins by LC-MS/MS analysis. It is filed as ADME, Microsome. (In general: Liver microsomes are a subcellular fraction often used to study metabolism.)
For series [6], the target named is Albumin (Homo sapiens, UniProt P02768). Put plainly: Binding affinity to human serum albumin measured after 60 mins by high performance affinity chromatography based LC-MS analysis. The note with it: 1 h.
The target in series [7] is T1, Sigma intracellular receptor 2 (Rattus norvegicus, UniProt Q5U3Y7).
T1 sequence (Q5U3Y7 whole entry): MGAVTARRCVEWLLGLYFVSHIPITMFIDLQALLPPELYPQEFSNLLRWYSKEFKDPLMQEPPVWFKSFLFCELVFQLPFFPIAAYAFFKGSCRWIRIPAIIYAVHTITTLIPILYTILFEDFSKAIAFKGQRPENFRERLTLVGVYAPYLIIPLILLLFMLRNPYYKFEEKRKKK
Put plainly: Displacement of [3H](+)-pentazocine from sigma2 receptor in rat liver membrane assessed as inhibition constant by competitive binding assay. Type of series: cell membranes. For orientation: In a radioligand displacement assay an active substance lowers the binding of a labelled ligand.

The target in series [8] is Sigma non-opioid intracellular receptor 1 (Cavia porcellus, UniProt Q60492). Nature of the series: Displacement of [3H](+)-pentazocine from sigma1 receptor in guniea pig brain membrane assessed as inhibition constant by competitive binding assay. It is filed as cell membranes.
Sigma non-opioid intracellular receptor 1, sequence (Q60492 whole entry): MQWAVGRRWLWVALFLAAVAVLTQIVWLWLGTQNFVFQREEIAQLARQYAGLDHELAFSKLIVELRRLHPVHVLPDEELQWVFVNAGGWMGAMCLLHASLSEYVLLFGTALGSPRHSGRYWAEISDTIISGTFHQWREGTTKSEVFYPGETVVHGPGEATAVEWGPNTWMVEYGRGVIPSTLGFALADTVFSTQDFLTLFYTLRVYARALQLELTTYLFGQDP

Albumin, sequence (P02768 whole entry): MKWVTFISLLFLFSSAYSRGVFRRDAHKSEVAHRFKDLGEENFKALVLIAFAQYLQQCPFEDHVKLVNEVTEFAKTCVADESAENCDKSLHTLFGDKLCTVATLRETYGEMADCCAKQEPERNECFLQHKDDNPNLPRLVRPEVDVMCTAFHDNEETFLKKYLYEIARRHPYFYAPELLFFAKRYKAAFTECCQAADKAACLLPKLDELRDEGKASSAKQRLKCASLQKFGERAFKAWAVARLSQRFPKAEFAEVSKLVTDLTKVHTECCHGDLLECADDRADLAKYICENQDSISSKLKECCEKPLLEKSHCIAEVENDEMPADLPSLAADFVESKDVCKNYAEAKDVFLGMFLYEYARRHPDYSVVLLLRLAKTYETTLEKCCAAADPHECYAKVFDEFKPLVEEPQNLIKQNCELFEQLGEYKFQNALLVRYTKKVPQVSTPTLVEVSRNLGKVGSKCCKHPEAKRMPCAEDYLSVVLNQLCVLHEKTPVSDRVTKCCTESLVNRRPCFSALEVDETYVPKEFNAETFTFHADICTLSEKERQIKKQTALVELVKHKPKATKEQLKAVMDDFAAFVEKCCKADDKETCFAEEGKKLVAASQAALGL
Glutamate receptor ionotropic, NMDA 2B, sequence (Q13224 whole entry): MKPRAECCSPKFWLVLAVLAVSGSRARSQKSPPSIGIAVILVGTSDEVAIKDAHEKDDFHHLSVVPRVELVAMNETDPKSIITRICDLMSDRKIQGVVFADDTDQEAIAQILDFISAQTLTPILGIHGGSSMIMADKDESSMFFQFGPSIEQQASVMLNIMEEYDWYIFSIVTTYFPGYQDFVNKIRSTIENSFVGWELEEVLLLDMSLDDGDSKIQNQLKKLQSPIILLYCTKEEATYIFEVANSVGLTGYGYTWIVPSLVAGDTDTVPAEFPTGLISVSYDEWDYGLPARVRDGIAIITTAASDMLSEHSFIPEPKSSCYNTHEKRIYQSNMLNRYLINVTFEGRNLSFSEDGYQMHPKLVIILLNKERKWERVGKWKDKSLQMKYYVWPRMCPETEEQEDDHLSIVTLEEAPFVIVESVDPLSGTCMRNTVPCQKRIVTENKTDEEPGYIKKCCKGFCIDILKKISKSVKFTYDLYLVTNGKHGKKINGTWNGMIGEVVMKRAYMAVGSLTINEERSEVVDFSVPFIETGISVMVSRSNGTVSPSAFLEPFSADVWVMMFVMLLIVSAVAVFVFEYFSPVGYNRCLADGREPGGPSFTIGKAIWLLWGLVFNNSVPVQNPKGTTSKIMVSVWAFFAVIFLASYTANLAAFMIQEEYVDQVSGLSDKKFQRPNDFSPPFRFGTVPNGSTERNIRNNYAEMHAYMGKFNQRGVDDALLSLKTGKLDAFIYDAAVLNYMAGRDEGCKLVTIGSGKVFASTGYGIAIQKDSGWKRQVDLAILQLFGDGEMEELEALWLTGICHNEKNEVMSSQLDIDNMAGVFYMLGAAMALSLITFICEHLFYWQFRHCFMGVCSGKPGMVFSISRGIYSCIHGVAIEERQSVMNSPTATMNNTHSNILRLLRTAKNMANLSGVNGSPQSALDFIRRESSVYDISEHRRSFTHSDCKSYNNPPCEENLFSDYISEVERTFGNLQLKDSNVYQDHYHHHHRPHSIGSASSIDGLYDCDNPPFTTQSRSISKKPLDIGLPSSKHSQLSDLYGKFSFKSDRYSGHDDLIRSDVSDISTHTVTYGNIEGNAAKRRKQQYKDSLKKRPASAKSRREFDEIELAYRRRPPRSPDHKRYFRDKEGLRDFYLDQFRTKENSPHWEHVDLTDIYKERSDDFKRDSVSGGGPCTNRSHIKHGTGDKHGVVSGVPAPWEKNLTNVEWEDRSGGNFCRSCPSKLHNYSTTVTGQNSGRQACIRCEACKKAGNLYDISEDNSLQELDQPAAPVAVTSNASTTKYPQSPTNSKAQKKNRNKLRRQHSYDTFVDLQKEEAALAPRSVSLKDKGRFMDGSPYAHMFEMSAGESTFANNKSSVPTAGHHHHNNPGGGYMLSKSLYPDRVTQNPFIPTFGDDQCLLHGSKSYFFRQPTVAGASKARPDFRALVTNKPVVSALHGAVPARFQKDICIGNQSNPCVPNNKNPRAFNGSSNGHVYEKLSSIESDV

Take `C[C@@H](CN1CCC(Cc2ccccc2)CC1)[C@@H](O)c1ccc(O)cc1`: the amount remaining at 1.5 h in series [1] amounted to 5%. In addition, the Ki in series [2] was 135 nM. Besides, the logD in series [3] was found to be 1.9. In addition, the Drug metabolism result in series [4] is “metabolite_detected”. Moreover, the half-life at 10 µM in series [5] is 23.7 min. Also, in series [6], the Activity worked out at 82%.
With `C[C@H]([C@@H](O)c1ccc2[nH]ncc2c1)N1CCC(Cc2ccccc2)CC1`, the Ki amounted to 263 nM in series [7] and 313 nM in series [8]. In series [6], this molecule displayed an Activity of 92%.
Turning to `C[C@@H]([C@@H](O)c1ccc2[nH]ncc2c1)N1CCC(Cc2ccccc2)CC1`, the figures for the inhibition constant (Ki) in series [7] and in series [8] were 556 nM and 523 nM, respectively. The molecule further came in with an Activity in series [6] of 91%.
With `C[C@@H](CN1CCC(Cc2ccccc2)CC1)[C@@H](O)c1ccc2[nH]ncc2c1`, the values for the Ki in series [7] and in series [8] were 209 nM and 21 nM, respectively. This molecule also came in with an Activity in series [6] of 89%.
In the same order, the values of `C[C@H](CN1CCC(Cc2ccccc2)CC1)[C@@H](O)c1ccc2[nH]ncc2c1` are 42 nM, 43 nM and 93%.
The matching figures for `C[C@H](CN1CCC(Cc2ccccc2)CC1)[C@H](O)c1ccc2[nH]ncc2c1` (stereo in doubt; 10a): 111 nM, 24 nM and 89%.
Regarding `C[C@H](CN1CCC(Cc2ccccc2)CC1)[C@H](O)c1ccc2[nH]ncc2c1` (stereo in doubt; 10ab), the Ki in series [7] worked out at 388 nM; in series [8], 56 nM.
For `C[C@@H](CN1CCC(Cc2ccccc2)CC1)[C@H](O)c1ccc2[nH]ncc2c1` (stereo in doubt; 10c), the inhibition constant (Ki) in series [7] is 269 nM; in series [8], 46 nM. The molecule also displayed an Activity in series [6] of 93%.
As to `C[C@@H](CN1CCC(Cc2ccccc2)CC1)[C@H](O)c1ccc2[nH]ncc2c1` (stereo in doubt; 10cd), the results for the Ki in series [7] and in series [8] were 57 nM and 44 nM, respectively.
Consider `C[C@@H]([C@H](O)c1ccc2[nH]ncc2c1)N1CCC(Cc2ccccc2)CC1` (stereo in doubt; 11a), for which the Ki in series [7] worked out at 33 nM; in series [8], 96 nM. This molecule came in with an Activity in series [6] of 92%.
Take `C[C@@H]([C@H](O)c1ccc2[nH]ncc2c1)N1CCC(Cc2ccccc2)CC1` (stereo in doubt; 11ab): the inhibition constant (Ki) in series [7] came to 245 nM; in series [8], 38 nM.
In the case of `C[C@H]([C@H](O)c1ccc2[nH]ncc2c1)N1CCC(Cc2ccccc2)CC1` (stereo in doubt; 11c), the Ki in series [7] is 112 nM; in series [8] it was 672 nM. The molecule also returned an Activity in series [6] of 90%.
`C[C@H]([C@H](O)c1ccc2[nH]ncc2c1)N1CCC(Cc2ccccc2)CC1` (stereo in doubt; 11cd): the values for the Ki in series [7] and in series [8] were 19 nM and 34 nM, respectively.
Consider `CC(C(O)c1ccc(O)cc1)N1CCC(Cc2ccccc2)CC1` (configuration not stated) [IFENPRODIL], for which the share remaining at 1.5 h in series [1] amounted to 91.4%. This molecule also yielded a logD in series [3] of 1.43. Moreover, the Drug metabolism result in series [4] was “metabolite_detected”. This molecule also came in with an Activity in series [6] of 84%.

One may read the fraction remaining as what is left of the initial amount, in per cent. Higher therefore signals less turnover. In general, Ki refers to a dissociation constant, usually derived from enzyme kinetics or from competition with a known ligand. The logD is the decadic logarithm of the distribution of all forms, ionised or not, between an organic phase and buffer at a given pH. The low end stands for lower lipophilicity, the high end for higher lipophilicity. What is called half-life is how long it takes for the measured level to halve.
